Data reported in US20230117205A1, “B7-H4 ANTIBODY-DRUG CONJUGATES FOR THE TREATMENT OF CANCER” (SEAGEN INC., priority 2021, published 2023).

How the values were obtained:
[1] = test system: MDA-MB-468 xenograft tumors; assay: MDA-MB-468 xenograft, single dose, tumor volume; type: in vivo, NSG mice; settings: single 3 mg/kg dose, i.p.
Experimental: Tumors were harvested 7 days after treatment, cut in half, and processed for RNA-seq or IHC. […]
Specifically, female NSG mice were implanted with 1×10^6 MDA-MB-468 cells in 25% Matrigel H C subcutaneously. Once tumor volumes reached ˜250-300 mm^3, mice were randomized into treatment groups of 6 mice each and treated with a single 3 mg/kg dose of ADC or mAb, or vehicle control (20 mM Histidine buffer, pH 6.0) injected intraperitoneally (i.p.). Stock concentrations of ADC were diluted to desired concentration with 20 mM Histidine buffer, pH 6.0 or and stock concentration of mAb were diluted to desired concentration with 0.01% Tween20 in PBS. Twenty-four hours prior to dosing, each animal was treated with 10 mg/kg hIVIG. One week following treatment, tumors were harvested, cut in half, and processed for RNAseq (frozen at −80° C.) or formalin-fixed and paraffin-embedded for immunohistochemical (IHC) analysis.

[2] = target: T1, recombinant human B7-H4 protein (Homo sapiens, UniProt Q7Z7D3); assay: BLI binding to recombinant human B7-H4 (monovalent and bivalent formats); settings: mAb compared with ADC
T1 construct: B7-H4 extracellular domain Phe29-Ala258 with a C-terminal 10-His tag
T1 sequence (Q7Z7D3 29-258): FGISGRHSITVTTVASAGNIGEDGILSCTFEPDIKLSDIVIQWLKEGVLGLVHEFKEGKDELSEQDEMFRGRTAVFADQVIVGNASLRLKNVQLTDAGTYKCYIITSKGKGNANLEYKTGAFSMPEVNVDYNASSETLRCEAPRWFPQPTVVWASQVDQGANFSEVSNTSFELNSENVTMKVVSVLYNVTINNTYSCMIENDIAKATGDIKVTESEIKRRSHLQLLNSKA

[3] = test system: HCC1569 xenograft model; assay: HCC1569 xenograft, Study HCC1569-2; type: in vivo, NSG mice; settings: 3 mg/kg, three weekly doses, i.p.
Experimental: Tumor volume was measured once or twice weekly until study day 71.
(§1) Female NSG mice were implanted with 1×10^6HCC1569 tumor cells in 25% Matrigel H C (Corning #354248) subcutaneously. Once tumor volumes reached 100 mm^3, mice were randomized into treatment groups of 5 mice each and dosed with 3 mg/kg of ADC every seven days for three total doses (q7dx3). Each mouse was treated with 10 mg/kg hIVIG (Grifolds) twenty-four hours prior to receiving each ADC dose. Tumor volumes were measured 1-3 times per week, and animals were euthanized when tumor volume reached 700-1000 mm^3. Stock concentrations of ADC were diluted to a desired concentration (with 0.01% Tween20 in PBS) and injected i.p. into each treatment group.

[4] = test system: MX-1 xenograft model; assay: MX-1 xenograft, Study MX1-2; type: in vivo, SCID mice; settings: 3 mg/kg, three weekly doses, i.p.
Experimental: Tumor volume was measured twice weekly until study day 84.
as §1, with “SCID” for “NSG”, “5×10^5 MX1” for “1×10^6HCC1569”, “(q7dx3).” for “(q7dx3). Each mouse was treated with 10 mg/kg hIVIG (Grifolds) twenty-four hours prior to receiving each ADC dose.”, “twice” for “1-3 times”

[5] = test system: Ovarian carcinoma PDX models; assay: Ovarian carcinoma patient-derived xenograft models; type: in vivo, mice; settings: 3 mg/kg q7dx3; for % TGI: vs untreated
Experimental: Tumor size and body weight were measured twice weekly, and the study was terminated when tumors in the control group reached 1500 mm^3 or up to Day 28, whichever occurred first, or maximum up to Day 60.
Specifically, Stock mice were bilaterally implanted with fragments from one of the Champions TumorGraft® models representing human HR^+ BC or ovarian cancer. After the tumors reached 1000-1500 mm^3, they were harvested, and the tumor fragments were implanted subcutaneously (s.c.) in the left flank of the female study mice. Each animal was implanted with a specific passage lot and documented. Tumor growth was monitored twice a week using digital calipers, and the tumor volume (TV) was calculated using the formula (0.52×[length×width^2]). When the TV reached approximately 150-300 mm^3, animals were matched by tumor size and assigned into control (untreated) or treatment groups (n=3 animals/group). Each animal in the treatment groups was dosed with 3 mg/kg of ADC every seven days for three total doses (q7dx3). Tumor size and body weight were measured twice weekly, and the study was terminated when tumors in the control group reached 1500 mm^3 or up to Day 28, whichever occurred first, or maximum up to Day 60.
Inhibition of tumor growth was determined by calculating the percent TGI on the day at which animals in the control group were terminated (100%×[1−(final MTV−initial MTV of a treated group)/(final MTV−initial MTV of the control group)]). Treatment started on Day 0.

SGN-B7H4V: ADC of fully human IgG1 anti-B7-H4 mAb conjugated to monomethyl auristatin E (MMAE) via a protease-cleavable valine-citrulline linker (vedotin)
tumor volume [1]: reduction in tumor volume
binding affinities for hB7-H4 [2]: similar
anti-tumor activity (tumor volume) [3]: robust tumor growth delay
anti-tumor activity (tumor volume) [4]: regression of tumor volumes in all mice
mice with sustained regression [4]: 4 of the 5
% TGI ([5]; Ovarian_1, Day 48): 110%
% TGI ([5]; Ovarian_2, Day 41): 103%
% TGI ([5]; Ovarian_3, Day 53): 84%
% TGI ([5]; Ovarian_4, Day 52): −57%
% TGI ([5]; Ovarian_5, Day 36): 83%
% TGI ([5]; Ovarian_6, Day 23): −33%
PDX models with tumor regression or tumor growth delay (e.g. TGI>50%) ([5]; ovarian carcinoma): 4/6
